Earlier results as cited in patent publication US7083803B2, “Ocular solutions” (Advanced Ocular Systems Limited, priority 2003, dated 2006).

What was measured:
[1] = administered systemically

C=CC[C@@H]1/C=C(\C)C[C@H](C)C[C@H](OC)[C@H]2O[C@@](O)(C(=O)C(=O)N3CCCC[C@H]3C(=O)O[C@H](/C(C)=C/[C@@H]3CC[C@@H](O)[C@H](OC)C3)[C@H](C)[C@@H](O)CC1=O)[C@H](C)C[C@@H]2OC [Tacrolimus, tacrolimus]
local tolerability (atopic dermatitis; topical administration): well tolerated locally
adverse effects, treated versus control groups (atopic dermatitis; topical administration for dermatoses at concentrations up to 0.3%): no significant difference
clinical improvement in atopic dermatitis (atopic dermatitis; topical administration, doses 0.03%–0.3%, after 2–3 weeks treatment): significant clinical improvement
renal and hepatic toxicity [1]: significant renal and hepatic toxicity
solubility in chloroform (chloroform): very soluble
solubility in ethanol (ethanol): freely soluble
solubility in methanol (methanol): very soluble
solubility in water (water): practically insoluble
